Reference: PMC6747015, “Structure–function study of a novel inhibitor of the casein kinase 1 family in Arabidopsis thaliana” (Plant Direct, 2019)

Columns and labels:
[1] = test system: all members of the CK1 family and an additional ten non‐CK1 proteins; experiment: AMI‐329 bead binding with AMI‐331 competitor, the 23 AMI‐331‐bound proteins; parameters: species or system Arabidopsis thaliana
Protocol: (§1) Screening for proteins bound to AMI‐329 beads was done by a method similar to what has previously been described (Uehara et al., 2019). Briefly, two‐week‐old seedlings grown under LD conditions were harvested at time points ZT2, ZT6, ZT9, and ZT17, and stored at −80°C. Proteins from the frozen plant samples were incubated with 0, 5, or 50 µM of AMI‐331 at 4°C for 30 min with rotary mixing. Two technical replicates were used for each experiment. PBS‐washed AMI‐329 beads were added to the protein samples and gently rotated at 4°C for 1 hr. AMI‐329 bead resins were washed with bead buffer (Uehara et al., 2019) six times. The washed resins were suspended in SDS sample buffer and boiled for 8 min. Protein samples were in‐gel‐digested as previously described (Uehara et al., 2019). Peptides were analyzed with a Q Exactive hybrid quadrupole‐orbitrap mass spectrometer (Thermo Fisher Scientific), as described previously (Uehara et al., 2019). […]
(§2) However, another possible mechanism for the strong AMI‐331 biological activity in vivo is that it targets proteins other than the CK1 family for period lengthening. […] It is noteworthy that kinase AT4G08800 is very similar to the CKL family, but the ATP‐binding pocket of mammalian CK1 as determined by its crystal structure (Shinohara et al., 2017) was absent from AT4G08800, as shown in an Araport 11 model (https://www.araport.org). […]

[2] = test system: ATSK (GSK3) family proteins; experiment: AMI‐329 bead binding with AMI‐331 competitor, ATSK family; parameters: species or system Arabidopsis thaliana; details: 50 µM AMI‐331 as competitor
Protocol: (§3) Screening for proteins bound to AMI‐329 beads was done by a method similar to what has previously been described (Uehara et al., 2019). Briefly, two‐week‐old seedlings grown under LD conditions were harvested at time points ZT2, ZT6, ZT9, and ZT17, and stored at −80°C. Proteins from the frozen plant samples were incubated with 0, 5, or 50 µM of AMI‐331 at 4°C for 30 min with rotary mixing. Two technical replicates were used for each experiment. PBS‐washed AMI‐329 beads were added to the protein samples and gently rotated at 4°C for 1 hr. AMI‐329 bead resins were washed with bead buffer (Uehara et al., 2019) six times. The washed resins were suspended in SDS sample buffer and boiled for 8 min. Protein samples were in‐gel‐digested as previously described (Uehara et al., 2019). Peptides were analyzed with a Q Exactive hybrid quadrupole‐orbitrap mass spectrometer (Thermo Fisher Scientific), as described previously (Uehara et al., 2019). MS/MS spectra were interpreted, and peak lists were generated using Proteome Discoverer 2.0.0.802 (Thermo Fisher Scientific). Searches were performed using SEQUEST (Thermo Fisher Scientific) against the Arabidopsis thaliana (TAIR TaxID = 3,702) peptide sequence database. […]
(§4) To examine other potential targets of AMI‐331, we analyzed the spectra for PHA767491 target proteins (Uehara et al., 2019). […]

CPK family = experiment: AMI‐329 bead binding with AMI‐331 competitor, CPK family; parameters: species or system Arabidopsis thaliana
Protocol: as §3, §4

CKL3 (AT4G28880) = target: T1, CKL3 (AT4G28880) (Arabidopsis thaliana, UniProt Q93Z18); experiment: AMI‐329 bead binding with AMI‐331 competitor, CKL3
T1 construct: from tissue; host or cells: Arabidopsis seedlings, two weeks old
Protocol: as §1, §2

CKL9 (AT1G03930) = target: T2, CKL9 (AT1G03930) (Arabidopsis thaliana, UniProt Q9ZWB3); experiment: AMI‐329 bead binding with AMI‐331 competitor, CKL9
T2 construct: from tissue; host or cells: Arabidopsis seedlings, two weeks old
Protocol: as §1, §2

CKL11 (AT4G14340) = target: T3, CKL11 (AT4G14340) (Arabidopsis thaliana, UniProt Q39050); experiment: AMI‐329 bead binding with AMI‐331 competitor, CKL11
T3 construct: from tissue; host or cells: Arabidopsis seedlings, two weeks old
Protocol: as §1, §2

Kinase AT4G08800 = experiment: AMI‐329 bead binding with AMI‐331 competitor, kinase AT4G08800; parameters: species or system Arabidopsis thaliana
Protocol: as §1, §2

[3] = target: T4, Membrane protein AT5G40670 (Arabidopsis thaliana, UniProt P57758); experiment: AMI‐329 bead binding with AMI‐331 competitor, membrane protein AT5G40670
T4 construct: from tissue; host or cells: Arabidopsis seedlings, two weeks old
Protocol: as §1, §2

NRPB3 (AT2G15430) = target: T5, NRPB3 (AT2G15430) (Arabidopsis thaliana, UniProt Q39211); experiment: AMI‐329 bead binding with AMI‐331 competitor, NRPB3
T5 construct: from tissue; host or cells: Arabidopsis seedlings, two weeks old
Protocol: as §1, §2

RNA‐binding AT3G15010 = target: T6, RNA‐binding AT3G15010 (Arabidopsis thaliana, UniProt Q9LKA4); experiment: AMI‐329 bead binding with AMI‐331 competitor, RNA‐binding protein AT3G15010
T6 construct: Proteins from the frozen plant samples were incubated with 0, 5, or 50 µM of AMI‐331; from tissue; host or cells: two-week-old Arabidopsis seedlings (protein lysate)
Protocol: as §1, §2

Unknown AT5G42765 = experiment: AMI‐329 bead binding with AMI‐331 competitor, unknown protein AT5G42765; parameters: species or system Arabidopsis thaliana
Protocol: as §1, §2

T6 sequence (Q9LKA4 whole entry): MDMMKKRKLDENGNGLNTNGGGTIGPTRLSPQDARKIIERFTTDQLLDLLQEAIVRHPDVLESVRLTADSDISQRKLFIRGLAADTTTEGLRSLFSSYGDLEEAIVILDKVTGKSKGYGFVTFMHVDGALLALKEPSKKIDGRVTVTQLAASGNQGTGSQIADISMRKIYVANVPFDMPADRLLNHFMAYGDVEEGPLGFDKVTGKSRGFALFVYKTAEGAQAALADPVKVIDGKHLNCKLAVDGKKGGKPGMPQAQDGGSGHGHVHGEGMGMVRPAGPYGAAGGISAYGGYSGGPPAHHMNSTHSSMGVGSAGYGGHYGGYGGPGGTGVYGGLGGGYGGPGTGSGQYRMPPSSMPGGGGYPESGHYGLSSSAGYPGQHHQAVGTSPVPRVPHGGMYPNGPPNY
T2 sequence (Q9ZWB3 whole entry): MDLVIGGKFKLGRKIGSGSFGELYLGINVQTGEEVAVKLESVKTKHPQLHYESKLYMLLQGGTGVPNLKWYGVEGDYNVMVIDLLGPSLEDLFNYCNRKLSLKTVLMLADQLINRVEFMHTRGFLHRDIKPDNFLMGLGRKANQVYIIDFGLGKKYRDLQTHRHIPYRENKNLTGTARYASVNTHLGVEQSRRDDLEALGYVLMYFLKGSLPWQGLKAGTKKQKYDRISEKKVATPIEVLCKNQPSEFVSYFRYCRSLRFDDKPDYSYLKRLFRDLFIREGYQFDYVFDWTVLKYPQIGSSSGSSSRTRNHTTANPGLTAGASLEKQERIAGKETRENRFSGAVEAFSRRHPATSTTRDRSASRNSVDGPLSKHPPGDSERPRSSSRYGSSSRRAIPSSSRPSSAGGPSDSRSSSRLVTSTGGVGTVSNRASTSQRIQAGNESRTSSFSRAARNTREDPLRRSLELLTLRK
T3 sequence (Q39050 whole entry): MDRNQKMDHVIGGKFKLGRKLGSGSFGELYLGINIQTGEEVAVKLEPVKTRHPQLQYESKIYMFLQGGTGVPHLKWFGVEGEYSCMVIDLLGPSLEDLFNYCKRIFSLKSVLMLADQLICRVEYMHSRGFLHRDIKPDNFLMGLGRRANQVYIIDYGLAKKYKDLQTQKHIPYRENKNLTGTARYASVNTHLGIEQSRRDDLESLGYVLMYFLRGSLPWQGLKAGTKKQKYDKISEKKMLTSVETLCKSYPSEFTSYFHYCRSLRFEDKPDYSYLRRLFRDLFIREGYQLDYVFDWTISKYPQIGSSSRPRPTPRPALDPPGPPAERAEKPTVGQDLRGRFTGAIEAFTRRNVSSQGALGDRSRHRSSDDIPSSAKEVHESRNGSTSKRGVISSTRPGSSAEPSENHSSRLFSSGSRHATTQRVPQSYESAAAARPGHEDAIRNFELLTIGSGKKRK
T4 sequence (P57758 whole entry): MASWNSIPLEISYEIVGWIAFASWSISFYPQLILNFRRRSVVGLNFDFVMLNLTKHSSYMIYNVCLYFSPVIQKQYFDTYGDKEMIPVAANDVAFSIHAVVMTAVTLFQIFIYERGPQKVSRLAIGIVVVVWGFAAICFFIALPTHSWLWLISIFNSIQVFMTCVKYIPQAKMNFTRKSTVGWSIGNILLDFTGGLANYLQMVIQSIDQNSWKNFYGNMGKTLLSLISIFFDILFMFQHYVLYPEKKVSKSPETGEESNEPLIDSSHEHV
T5 sequence (Q39211 whole entry): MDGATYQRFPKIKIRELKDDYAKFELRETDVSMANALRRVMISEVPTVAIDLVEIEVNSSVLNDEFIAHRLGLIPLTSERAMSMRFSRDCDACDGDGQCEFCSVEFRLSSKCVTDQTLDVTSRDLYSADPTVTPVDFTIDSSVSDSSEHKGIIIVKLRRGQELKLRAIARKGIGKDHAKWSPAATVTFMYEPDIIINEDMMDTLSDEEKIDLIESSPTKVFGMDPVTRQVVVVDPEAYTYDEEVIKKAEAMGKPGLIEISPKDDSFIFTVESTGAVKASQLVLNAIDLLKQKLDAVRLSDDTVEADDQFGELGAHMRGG
T1 sequence (Q93Z18 whole entry): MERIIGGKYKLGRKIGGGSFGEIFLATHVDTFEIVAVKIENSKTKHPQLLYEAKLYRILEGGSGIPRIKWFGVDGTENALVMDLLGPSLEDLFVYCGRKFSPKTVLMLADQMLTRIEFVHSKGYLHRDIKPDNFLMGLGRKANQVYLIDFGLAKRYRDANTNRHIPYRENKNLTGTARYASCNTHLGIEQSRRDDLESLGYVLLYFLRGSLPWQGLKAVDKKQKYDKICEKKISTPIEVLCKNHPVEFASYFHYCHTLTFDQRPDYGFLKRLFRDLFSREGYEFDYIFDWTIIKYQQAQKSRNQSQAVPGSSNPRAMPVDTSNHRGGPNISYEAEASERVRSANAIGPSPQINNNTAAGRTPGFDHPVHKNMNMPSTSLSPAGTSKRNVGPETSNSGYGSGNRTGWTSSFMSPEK

C#CCn1c2c(c(Br)c1-c1ccncc1)C(=O)NCC2.Cl [AMI‐331]
Spectra on AMI‐329 beads compared to the control sample without competitor ([1]; 5 µM AMI‐331 as competitor): 0% to 7%
Spectra on AMI‐329 beads ([1]; 50 µM AMI‐331 as competitor): absent
Spectra on AMI‐329 beads relative to 0 µM sample [2]: 0%–13%
Target status from enrichment in 0 µM versus 5 or 50 µM samples (CPK family): not a target
Spectra (PSMs) AMI‐329 beads bound (CKL3 (AT4G28880); competitor AMI‐331 5 µM): 1 PSMs
Spectra (PSMs) AMI‐329 beads bound (CKL3 (AT4G28880); competitor AMI‐331 50 µM): 0 PSMs
Spectra (PSMs) AMI‐329 beads bound (CKL9 (AT1G03930); competitor AMI‐331 5 µM): 1 PSMs
Spectra (PSMs) AMI‐329 beads bound (CKL9 (AT1G03930); competitor AMI‐331 50 µM): 0 PSMs
Spectra (PSMs) AMI‐329 beads bound (CKL11 (AT4G14340); competitor AMI‐331 5 µM): 1 PSMs
Spectra (PSMs) AMI‐329 beads bound (CKL11 (AT4G14340); competitor AMI‐331 50 µM): 0 PSMs
Spectra (PSMs) AMI‐329 beads bound (Kinase AT4G08800; competitor AMI‐331 5 µM): 0 PSMs
Spectra (PSMs) AMI‐329 beads bound (Kinase AT4G08800; competitor AMI‐331 50 µM): 0 PSMs
Spectra (PSMs) AMI‐329 beads bound ([3]; competitor AMI‐331 5 µM): 0 PSMs
Spectra (PSMs) AMI‐329 beads bound ([3]; competitor AMI‐331 50 µM): 0 PSMs
Spectra (PSMs) AMI‐329 beads bound (NRPB3 (AT2G15430); competitor AMI‐331 5 µM): 0 PSMs
Spectra (PSMs) AMI‐329 beads bound (NRPB3 (AT2G15430); competitor AMI‐331 50 µM): 0 PSMs
Spectra (PSMs) AMI‐329 beads bound (RNA‐binding AT3G15010; competitor AMI‐331 5 µM): 0 PSMs
Spectra (PSMs) AMI‐329 beads bound (RNA‐binding AT3G15010; competitor AMI‐331 50 µM): 0 PSMs
Spectra (PSMs) AMI‐329 beads bound (Unknown AT5G42765; competitor AMI‐331 5 µM): 0 PSMs
Spectra (PSMs) AMI‐329 beads bound (Unknown AT5G42765; competitor AMI‐331 50 µM): 0 PSMs
